Laboratory results from patent US6492407B2, “Pharmaceutical compositions containing triazolones and methods of treating neurodegenerative disease using triazolones” (Boehringer Imgelheim Pharma KG, priority 1998, dated 2002).
Where a name gives a salt, the structure may show the parent alone.

Experiments:
AMPA receptor = test: Inhibition of the cainate-induced signal at the AMPA receptor, electrophysiology on neuronal cells (patch-clamp method); format: cell-based; details: test concentration of 100 μM
Procedure: The testing was carried out at a test concentration of 100 μM.

[1] = target: Na+ channel site 2 binding site; test: Affinity to the "Na+ channel site 2" binding site (method of G. B. Brown); details: testing typically at a test concentration of 10 μM

Compound	melting point [°C]	Ki [1] [µM]	AMPA Inh. [%] (inhibition of the cainate-induced signal at the AMPA receptor) (AMPA receptor)
Cc1cccc(-n2[nH]c(-c3ccccc3)nc2=O)c1 (as salt: HCl) [Example 46, 2-(3-methyl-phenyl)-5-phenyl-3H-1,2,4-triazol-3-one]	207 to 208		
CN(C)CCn1c(-c2ccccc2)nn(-c2cccc(F)c2)c1=O (as salt: HCl) [Example 49, 2-(3-fluorophenyl)-4-(2-N,N-dimethyl-aminoethyl)-5-phenyl-3H-1,2,4-triazol-3-one]	201 to 203		
Cc1cccc(-n2nc(-c3ccccc3)n(CCN(C)C)c2=O)c1 (as salt: HCl) [Example 53, 4-(2-N,N-dimethyl-amino-ethyl)-2-(3-methyl-phenyl)-5-phenyl-3H-1,2,4-triazol-3-one]	204 to 206		
Cc1ccccc1-n1[nH]c(-c2ccccc2)nc1=O [Example 1, 2-(2-methyl-phenyl)-5-phenyl-3H-1,2,4-triazol-3-one]	208 to 211		58
O=c1nc(-c2ccccc2)[nH]n1-c1ccccc1Cl [Example 33, 2-(2-chloro-phenyl)-5-phenyl-3H-1,2,4-triazol-3-one]	257		97
CN(C)CCn1c(-c2ccccc2)nn(-c2cccc(Cl)c2)c1=O [Example 35, 2-(3-chloro-phenyl)-4-(2-N,N-dimethylamino-ethyl)-5-phenyl-3H-1,2,4-triazol-3-one]		2.08	
Cc1cccc(-n2[nH]c(-c3ccccc3)nc2=O)c1 [Example 46, 2-(3-methyl-phenyl)-5-phenyl-3H-1,2,4-triazol-3-one]			54
CCc1ccccc1-n1[nH]c(-c2ccccc2)nc1=O [Example 48, 2-(2-ethyl-phenyl)-5-phenyl-3H-1,2,4-triazol-3-one]	209 to 210		63
CN(C)CCn1c(-c2ccccc2)nn(-c2cccc(F)c2)c1=O [Example 49, 2-(3-fluorophenyl)-4-(2-N,N-dimethyl-aminoethyl)-5-phenyl-3H-1,2,4-triazol-3-one]		6.58	
Cc1cccc(-n2nc(-c3ccccc3)n(C)c2=O)c1 [Example 50, 4-methyl-2-(3-methyl-phenyl)-5-phenyl-3H-1,2,4-triazol-3-one]	91 to 92		71
Cc1cccc(-n2nc(-c3ccccc3)n(CCN(C)C)c2=O)c1 [Example 53, 4-(2-N,N-dimethyl-amino-ethyl)-2-(3-methyl-phenyl)-5-phenyl-3H-1,2,4-triazol-3-one]		5.78	
Cn1c(-c2ccccc2)nn(-c2ccccc2Cl)c1=O [Example 55, 2-(2-chloro-phenyl)-4-methyl-5-phenyl-3H-1,2,4-triazol-3-one]	94 to 96		80

The next lines start with results.

melting point [°C]	Ki [1] [µM]	Compound	AMPA Inh. [%] (inhibition of the cainate-induced signal at the AMPA receptor) (AMPA receptor)
204 to 207		Cc1ccccc1-n1nc(-c2ccccc2)n(CCN(C)C)c1=O (as salt: HCl) [Example 27, 4-(2-N,N-dimethyl-aminoethyl)-2-(2-methyl-phenyl)-5-phenyl-3H-1,2,4-triazol-3-one]	
81 to 83		COc1cccc(-n2nc(-c3ccccc3)n(C)c2=O)c1 [Example 5, 2-(3-methoxy-phenyl)-4-methyl-5-phenyl-3H-1,2,4-triazol-3-one]	58
80 to 82		Cn1c(-c2ccccc2)nn(-c2ccccc2Br)c1=O [Example 8, 2-(2-bromo-phenyl)-4-methyl-5-phenyl-3H-1,2,4-triazol-3-one]	87
118		COc1ccc(-c2nn(-c3ccccc3)c(=O)n2C)cc1 [Example 22, 5-(4-methoxy-phenyl)-4-methyl-2-phenyl-3H-1,2,4-triazol-3-one]	50
117		COc1ccccc1-c1nn(-c2ccccc2)c(=O)n1C [Example 25, 5-(2-methoxy-phenyl)-4-methyl-2-phenyl-3H-1,2,4-triazol-3-one]	72
	5.41	Cc1ccccc1-n1nc(-c2ccccc2)n(CCN(C)C)c1=O [Example 27, 4-(2-N,N-dimethyl-aminoethyl)-2-(2-methyl-phenyl)-5-phenyl-3H-1,2,4-triazol-3-one]	64
275 to 277		COc1ccccc1-n1[nH]c(-c2ccccc2)nc1=O [Example 32, 2-(2-methoxy-phenyl)-5-phenyl-3H-1,2,4-triazol-3-one]	73
238 to 240		O=c1nc(-c2ccccc2)[nH]n1-c1ccccc1F [Example 37, 2-(2-fluoro-phenyl)-5-phenyl-3H-1,2,4-triazol-3-one]	86
81		Cn1c(-c2ccccc2)nn(-c2cccc(F)c2)c1=O [Example 42, 2-(3-fluoro-phenyl)-4-methyl-5-phenyl-3H-1,2,4-triazol-3-one]	96
65 to 66		Cn1c(-c2ccccc2)nn(-c2ccccc2F)c1=O [Example 44, 2-(2-fluoro-phenyl)-4-methyl-5-phenyl-3H-1,2,4-triazol-3-one]	76
246 to 264		O=c1nc(-c2ccccc2)[nH]n1-c1ccccc1Br [Example 56, 2-(2-bromo-phenyl)-5-phenyl-3H-1,2,4-triazol-3-one]	96
